Reference: patent US20250051346A1 (priority 2021, published 2025)
Like-named read-outs stand apart in the source and are kept apart here.

Key:
[1] = biological target: T1, 5-HT2A (Homo sapiens, UniProt P28223); test: Serotonin 5-HT2A in vitro cellular IPOne agonism assay; format: cell-based; design: host or cells: CHO-K1; details: CHO-K1 cells, 60 min
Procedure: Serotonin 5-HT2A In Vitro Cellular IPOne Agonism Assay. The 5-HT2A IPOne HTRF assay was performed at Epics Therapeutics S.A. (Belgium, FAST-0505I) using conventional methods. Briefly, CHO-K1 cells expressing human recombinant 5-HT2A receptor grown to mid-log phase in culture media without antibiotics were detached with PBS-EDTA, centrifuged, and resuspended in medium without antibiotics buffer. 20,000 cells are distributed in a 96 well plate and incubated overnight at 37° C. with 5% CO2.
For agonist testing, the medium was removed and 20 μl of assay buffer plus 20 μl of test compound or reference agonist were added in each well. The plate was incubated for 60 min. at 37° C. with 5% CO2.
After addition of the lysis buffer containing IP1-d2 and anti-IP1 cryptate detection reagents, plates were incubated 1-hour at room temperature, and fluorescence ratios were measured according to the manufacturer specification, with the HTRF kit.

[2] = biological target: T1, 5-HT2A; test: Serotonin 5-HT2A in vitro radioligand binding competition assay; design: purchased Epics Therapeutics S.A. (Belgium), contract assay FAST-0505B; host or cells: membrane extracts; details: [3H]-DOI radiotracer, membrane extracts, read-out: 5HT2A R[…] ACTIVITY
Procedure: Serotonin 5-HT2A In Vitro Radioligand Binding Competition Assay. The 5-HT2A radioligand binding competition assay was performed at Epics Therapeutics S.A. (Belgium, FAST-0505B) using conventional methods. Briefly, competition binding was performed in duplicate in the wells of a 96 well plate (Master Block, Greiner, 786201) containing binding buffer (optimized for each receptor), membrane extracts (amount of protein/well optimized for each receptor), radiotracer [^3H]-DOI (final concentration optimized for each receptor) and test compound. Nonspecific binding was determined by co-incubation with 200-fold excess of cold competitor. The samples were incubated in a final volume of 0.1 ml at a temperature and for a duration optimized for each receptor and then filtered over filter plates. Filters were washed six times with 0.5 ml of ice-cold washing buffer (optimized for each receptor) and 50 μl of Microscint 20 (Packard) were added in each well. The plates were incubated 15 min on an orbital shaker and then counted with a TopCount™ for 1 min/well.

T1 sequence (P28223 whole entry): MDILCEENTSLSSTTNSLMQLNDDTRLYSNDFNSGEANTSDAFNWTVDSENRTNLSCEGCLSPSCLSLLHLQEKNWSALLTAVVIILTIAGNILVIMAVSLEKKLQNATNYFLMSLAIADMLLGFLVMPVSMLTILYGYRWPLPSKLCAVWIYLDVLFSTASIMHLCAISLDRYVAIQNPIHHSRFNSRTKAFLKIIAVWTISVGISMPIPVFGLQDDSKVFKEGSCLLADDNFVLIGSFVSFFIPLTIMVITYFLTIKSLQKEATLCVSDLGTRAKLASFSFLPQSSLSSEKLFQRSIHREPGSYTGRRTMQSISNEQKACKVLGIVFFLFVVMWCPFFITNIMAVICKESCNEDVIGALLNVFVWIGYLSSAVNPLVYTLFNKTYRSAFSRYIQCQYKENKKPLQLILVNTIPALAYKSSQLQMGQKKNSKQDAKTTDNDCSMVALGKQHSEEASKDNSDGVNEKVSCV

Compound | EC50 ([1]; benzofurans) [µM] | IC50 ([2]; benzofurans) [µM] | EC50 ([1]; benzothiophenes) [µM] | IC50 ([2]; benzothiophenes) [µM]
Fc1cccc2oc3c(c12)CN(C1CCC1)CCC3 [Compound 1, 2-cyclobutyl-10-fluoro-2,3,4,5-tetrahydro-1H-benzofuro[3,2-c]azepine] | > 10 | > 10 |  | 
Fc1cccc2oc3c(c12)CCN(C1CCC1)CC3 [Compound 2, 3-cyclobutyl-10-fluoro-2,3,4,5-tetrahydro-1H-benzofuro[2,3-d]azepine] | 1 to 10 | 1 to 10 |  | 
CN1CCc2oc3cccc(F)c3c2CC1 [Compound 3, 10-fluoro-3-methyl-2,3,4,5-tetrahydro-1H-benzofuro[2,3-d]azepine] | 0.101 to 1 | 0.101 to 1 |  | 
CN1CCCc2oc3cccc(F)c3c2C1 [Compound 4, 10-fluoro-2-methyl-2,3,4,5-tetrahydro-1H-benzofuro[3,2-c]azepine] | > 10 | 1 to 10 |  | 
Fc1cccc2oc3c(c12)CN(CC(F)(F)F)CCC3 [Compound 5, 10-fluoro-2-(2,2,2-trifluoroethyl)-2,3,4,5-tetrahydro-1H-benzofuro[3,2-c]azepine] | > 10 | > 10 |  | 
Fc1ccc2c3c(oc2c1)CCCNC3 [Compound 6, 8-fluoro-2,3,4,5-tetrahydro-1H-benzofuro[3,2-c]azepine] | 1 to 10 | > 10 |  | 
Fc1cccc2oc3c(c12)CNCCC3 [Compound 7, 10-fluoro-2,3,4,5-tetrahydro-1H-benzofuro[3,2-c]azepine] | > 10 | > 10 |  | 
Fc1cccc2oc3c(c12)CCN(CC(F)(F)F)CC3 [Compound 8, 10-fluoro-3-(2,2,2-trifluoroethyl)-2,3,4,5-tetrahydro-1H-benzofuro[2,3-d]azepine] | 1 to 10 | > 10 |  | 
CN1CCCc2oc3cc(F)ccc3c2C1 [Compound 9, 8-fluoro-2-methyl-2,3,4,5-tetrahydro-1H-benzofuro[3,2-c]azepine] | 1 to 10 | 1 to 10 |  | 
Fc1cccc2oc3c(c12)CCNCC3 [Compound 10, 10-fluoro-2,3,4,5-tetrahydro-1H-benzofuro[2,3-d]azepine] | 0.101 to 1 | 0.101 to 1 |  | 
COc1ccc2c3c(oc2c1)CCCN(CC(F)(F)F)C3 [Compound 11, 8-methoxy-2-(2,2,2-trifluoroethyl)-2,3,4,5-tetrahydro-1H-benzofuro[3,2-c]azepine] | > 10 | > 10 |  | 
COc1ccc2c3c(oc2c1)CCCN(C1CCC1)C3 [Compound 12, 2-cyclobutyl-8-methoxy-2,3,4,5-tetrahydro-1H-benzofuro[3,2-c]azepine] | > 10 | > 10 |  | 
FC(F)(F)CN1CCCc2oc3ccccc3c2C1 [Compound 13, 2-(2,2,2-trifluoroethyl)-2,3,4,5-tetrahydro-1H-benzofuro[3,2-c]azepine] | > 10 | > 10 |  | 
COc1cccc2oc3c(c12)CCN(C1CCC1)CC3 [Compound 15, 3-cyclobutyl-10-methoxy-2,3,4,5-tetrahydro-1H-benzofuro[2,3-d]azepine] | 1 to 10 | 1 to 10 |  | 
COc1cccc2oc3c(c12)CCNCC3 [Compound 16, 10-methoxy-2,3,4,5-tetrahydro-1H-benzofuro[2,3-d]azepine] | 0.01 to 0.1 | 0.101 to 1 |  | 
COc1ccc2c3c(oc2c1)CCCN(C)C3 [Compound 17, 8-methoxy-2-methyl-2,3,4,5-tetrahydro-1H-benzofuro[3,2-c]azepine] | > 10 | > 10 |  | 
COc1cccc2oc3c(c12)CNCCC3 [Compound 18, 10-methoxy-2,3,4,5-tetrahydro-1H-benzofuro[3,2-c]azepine] | 1 to 10 | 1 to 10 |  | 
COc1ccc2c3c(oc2c1)CCCNC3 [Compound 19, 8-methoxy-2,3,4,5-tetrahydro-1H-benzofuro[3,2-c]azepine] | > 10 | > 10 |  | 
c1ccc2c3c(oc2c1)CCCN(C1CCC1)C3 [Compound 20, 2-cyclobutyl-2,3,4,5-tetrahydro-1H-benzofuro[3,2-c]azepine] | > 10 | > 10 |  | 
CN1CCCc2oc3ccccc3c2C1 [Compound 21, 2-methyl-2,3,4,5-tetrahydro-1H-benzofuro[3,2-c]azepine] | > 10 | > 10 |  | 

Compound | EC50 ([1]; benzofurans) [µM] | IC50 ([2]; benzofurans) [µM] | EC50 ([1]; benzothiophenes) [µM] | IC50 ([2]; benzothiophenes) [µM]
c1ccc2c3c(oc2c1)CCCNC3 [Compound 22, 2,3,4,5-tetrahydro-1H-benzofuro[3,2-c]azepine] | > 10 | > 10 |  | 
Fc1ccc2c3c(oc2c1)CCNCC3 [Compound 24, 8-fluoro-2,3,4,5-tetrahydro-1H-benzofuro[2,3-d]azepine] | 0.01 to 0.1 | 0.101 to 1 |  | 
COc1ccc2c3c(oc2c1)CCN(C1CCC1)CC3 [Compound 25, 3-cyclobutyl-8-methoxy-2,3,4,5-tetrahydro-1H-benzofuro[2,3-d]azepine] | > 10 | > 10 |  | 
COc1ccc2c3c(oc2c1)CCN(C)CC3 [Compound 26, 8-methoxy-3-methyl-2,3,4,5-tetrahydro-1H-benzofuro[2,3-d]azepine] | > 10 | 1 to 10 |  | 
COc1ccc2c3c(oc2c1)CCNCC3 [Compound 27, 8-methoxy-2,3,4,5-tetrahydro-1H-benzofuro[2,3-d]azepine] | 1 to 10 | 1 to 10 |  | 
FC(F)(F)CN1CCc2oc3ccccc3c2CC1 [Compound 29, 3-(2,2,2-trifluoroethyl)-2,3,4,5-tetrahydro-1H-benzofuro[2,3-d]azepine] | > 10 | > 10 |  | 
c1ccc2c3c(oc2c1)CCNCC3 [Compound 31, 2,3,4,5-tetrahydro-1H-benzofuro[2,3-d]azepine] | 0.101 to 1 | 0.101 to 1 |  | 
COc1ccc2c3c(sc2c1)CCNCC3 [Compound 35, 8-methoxy-2,3,4,5-tetrahydro-1H-benzo[4,5]thieno[2,3-d]azepine] |  |  | 0.101 to 1 | 1 to 10
CN1CCc2oc3cc(C(F)(F)F)ccc3c2CC1 [Compound 39, 3-methyl-8-(trifluoromethyl)-2,3,4,5-tetrahydro-1H-benzofuro[2,3-d]azepine] | > 10 | 1 to 10 |  | 
CN1CCc2oc3cc(OC(F)(F)F)ccc3c2CC1 [Compound 40, 3-methyl-8-(trifluoromethoxy)-2,3,4,5-tetrahydro-1H-benzofuro[2,3-d]azepine] | > 10 | 1 to 10 |  | 
CN1CCc2oc3cc(OCc4ccccc4)ccc3c2CC1 [Compound 41, 8-(benzyloxy)-3-methyl-2,3,4,5-tetrahydro-1H-benzofuro[2,3-d]azepine] | > 10 | 0.101 to 1 |  | 
FC(F)(F)c1ccc2c3c(oc2c1)CCNCC3 [Compound 43, 8-(trifluoromethyl)-2,3,4,5-tetrahydro-1H-benzofuro[2,3-d]azepine] | 0.101 to 1 | 1 to 10 |  | 
FC(F)(F)Oc1ccc2c3c(oc2c1)CCNCC3 [Compound 44, 8-(trifluoromethoxy)-2,3,4,5-tetrahydro-1H-benzofuro[2,3-d]azepine] | 0.101 to 1 | 1 to 10 |  | 
c1ccc(COc2ccc3c4c(oc3c2)CCNCC4)cc1 [Compound 45, 8-(benzyloxy)-2,3,4,5-tetrahydro-1H-benzofuro[2,3-d]azepine] | 1 to 10 | 1 to 10 |  | 
Fc1ccc2c3c(sc2c1)CCNCC3 [Compound 46, 8-fluoro-2,3,4,5-tetrahydro-1H-benzo[4,5]thieno[2,3-d]azepine] |  |  | < 0.01 | 0.01 to 0.1
FC(F)(F)c1ccc2c3c(oc2c1)CCCNC3 [Compound 48, 8-(trifluoromethyl)-2,3,4,5-tetrahydro-1H-benzofuro[3,2-c]azepine] | 1 to 10 | 1 to 10 |  | 
FC(F)(F)Oc1ccc2c3c(oc2c1)CCCNC3 [Compound 49, 8-(trifluoromethoxy)-2,3,4,5-tetrahydro-1H-benzofuro[3,2-c]azepine] | 1 to 10 | 1 to 10 |  | 
c1ccc(COc2ccc3c4c(oc3c2)CCCNC4)cc1 [Compound 50, 8-(benzyloxy)-2,3,4,5-tetrahydro-1H-benzofuro[3,2-c]azepine] | > 10 | 1 to 10 |  | 
c1ccc(COc2cccc3oc4c(c23)CNCCC4)cc1 [Compound 51, 10-(benzyloxy)-2,3,4,5-tetrahydro-1H-benzofuro[3,2-c]azepine] | > 10 | 1 to 10 |  | 
CN1CCCc2oc3cc(C(F)(F)F)ccc3c2C1 [Compound 52, 2-methyl-8-(trifluoromethyl)-2,3,4,5-tetrahydro-1H-benzofuro[3,2-c]azepine] | > 10 | 1 to 10 |  | 
